Assay results published in US11208400B2, “Substituted 6-(1H-pyrazol-1-yl)pyrimidin-4-amine derivatives and uses thereof” (Bayer Aktiengesellschaft, priority 2016, dated 2021).

Molecular target: T1, human Npt2a (Homo sapiens, UniProt Q06495)
T1 construct: expressed in transfected cells
T1 sequence (Q06495 1-639): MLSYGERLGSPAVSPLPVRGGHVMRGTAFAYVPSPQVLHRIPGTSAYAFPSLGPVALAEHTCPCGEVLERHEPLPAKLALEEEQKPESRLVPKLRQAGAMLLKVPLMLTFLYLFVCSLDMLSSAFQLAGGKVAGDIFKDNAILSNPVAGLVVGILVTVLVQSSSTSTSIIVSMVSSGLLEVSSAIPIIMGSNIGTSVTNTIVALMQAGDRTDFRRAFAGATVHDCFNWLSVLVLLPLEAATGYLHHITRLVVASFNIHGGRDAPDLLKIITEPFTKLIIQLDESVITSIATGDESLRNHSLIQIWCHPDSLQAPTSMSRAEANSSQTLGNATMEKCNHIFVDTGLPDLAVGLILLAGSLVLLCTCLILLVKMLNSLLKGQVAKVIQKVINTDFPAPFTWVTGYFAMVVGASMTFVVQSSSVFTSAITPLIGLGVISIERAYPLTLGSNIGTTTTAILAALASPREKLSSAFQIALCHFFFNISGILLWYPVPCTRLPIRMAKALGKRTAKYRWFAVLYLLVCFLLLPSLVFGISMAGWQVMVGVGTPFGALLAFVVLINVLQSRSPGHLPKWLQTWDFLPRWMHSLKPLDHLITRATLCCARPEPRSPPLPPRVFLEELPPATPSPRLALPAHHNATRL
Experiment: Npt2a activity cell based assay, membrane potential dye, CHO T-REx hNpt2a cells
Details: doxycycline-induced, depolarization by sodium phosphate influx, average or median values if tested more than once
Outline: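 Doxycycline-induced (0.5 μg/mL, 24 h) CHO T-REx cells were loaded with membrane potential dye in sodium-free NHE buffer (pH 7.4) and exposed to compound (50 μM–1 nM, 5 min, room temperature).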

Row | Compound | IC50 [nM]
1 | COc1c(C)nn(-c2cc(Nc3c(C)c(-c4ccc(F)cc4)nn3CC3CC3)ncn2)c1C [Example 385, N-[1-(cyclopropylmethyl)-3-(4-fluorophenyl)-4-methyl-1H-pyrazol-5-yl]-6-(4-methoxy-3,5-dimethyl-1H-pyrazol-1-yl)pyrimidin-4-amine] | 4
2 | CCc1c(-c2ccc(F)cc2)nn(Cc2nnn(C)n2)c1Nc1cc(-n2nc(C)cc2C)ncn1 [Example 388, 6-(3,5-dimethyl-1H-pyrazol-1-yl)-N-{4-ethyl-3-(4-fluorophenyl)-1-[(2-methyl-2H-tetrazol-5-yl)methyl]-1H-pyrazol-5-yl}pyrimidin-4-amine] | 64
3 | Cc1ccc(-c2nn(CC3CC3)c(Nc3cc(-n4nc(C)c(C(C)(C)O)c4C)ncn3)c2C)cc1 [Example 389, 2-[1-(6-{[1-(cyclopropylmethyl)-4-methyl-3-(4-methylphenyl)-1H-pyrazol-5-yl]amino}pyrimidin-4-yl)-3,5-dimethyl-1H-pyrazol-4-yl]propan-2-ol] | 130
4 | Cc1nn(-c2cc(Nc3c(C)c(-c4ccc(F)cc4)nn3CC3CC3)ncn2)c(C)c1CN1CC(F)(F)C1 [Example 390, N-[1-(cyclopropylmethyl)-3-(4-fluorophenyl)-4-methyl-1H-pyrazol-5-yl]-6-{4-[(3,3-difluoroazetidin-1-yl)methyl]-3,5-dimethyl-1H-pyrazol-1-yl}pyrimidin-4-amine] | 25
5 | CCc1c(-c2ccc(F)cc2)nn(Cc2nnnn2C)c1Nc1cc(-n2nc(C)cc2C)ncn1 [Example 391, 6-(3,5-dimethyl-1H-pyrazol-1-yl)-N-{4-ethyl-3-(4-fluorophenyl)-1-[(1-methyl-1H-tetrazol-5-yl)methyl]-1H-pyrazol-5-yl}pyrimidin-4-amine] | 13
6 | Cc1nn(-c2cc(Nc3c(C)nn(-c4ccc(F)cc4)c3C)ncn2)c(C)c1CC(C)(C)O [Example 393, 1-[1-(6-{[1-(4-fluorophenyl)-3,5-dimethyl-1H-pyrazol-4-yl]amino}pyrimidin-4-yl)-3,5-dimethyl-1H-pyrazol-4-yl]-2-methylpropan-2-ol] | 180
7 | Cc1nn(-c2cc(Nc3c(C)c(-c4ccc(F)cc4)nn3CC3CC3)ncn2)c2c1C(=O)CC2 [Example 394, 1-(6-{[1-(cyclopropylmethyl)-3-(4-fluorophenyl)-4-methyl-1H-pyrazol-5-yl]amino}pyrimidin-4-yl)-3-methyl-5,6-dihydrocyclopenta[c]pyrazol-4(1H)-one] | 71
8 | Cc1c(-c2ccc(F)cc2)nn(CC2CC2)c1Nc1cc(-n2nc3c(c2C)C(=O)CC3)ncn1 [Example 395, 2-(6-{[1-(cyclopropylmethyl)-3-(4-fluorophenyl)-4-methyl-1H-pyrazol-5-yl]amino}pyrimidin-4-yl)-3-methyl-5,6-dihydrocyclopenta[c]pyrazol-4(2H)-one] | 19
9 | Cc1nn(-c2cc(Nc3c(C)c(-c4ccc(C(F)F)cc4)nn3CC3CC3)ncn2)c(C)c1C(C)(C)O [Example 396, 2-{1-[6-({1-(cyclopropylmethyl)-3-[4-(difluoromethyl)phenyl]-4-methyl-11H-pyrazol-5-yl}amino)pyrimidin-4-yl]-3,5-dimethyl-1H-pyrazol-4-yl}propan-2-ol] | 16
10 | Cc1ccc(-c2nn(CC3CC3)c(Nc3cc(-n4nc(C)c(Cl)c4C)ncn3)c2C)cn1 [Example 397, 6-(4-chloro-3,5-dimethyl-1H-pyrazol-1-yl)-N-[1-(cyclopropylmethyl)-4-methyl-3-(6-methylpyridin-3-yl)-1H-pyrazol-5-yl]pyrimidin-4-amine] | 92
11 | Cc1nn(-c2cc(Nc3c(C)c(-c4ccc(OC(F)F)cc4)nn3CC3CC3)ncn2)c(C)c1Cl [Example 398, 6-(4-chloro-3,5-dimethyl-1H-pyrazol-1-yl)-N-{1-(cyclopropylmethyl)-3-[4-(difluoromethoxy)phenyl]-4-methyl-1H-pyrazol-5-yl}pyrimidin-4-amine] | 25
12 | CSc1c(C)nn(-c2cc(Nc3c(C)c(-c4ccc(F)cc4)nn3CC3CC3)ncn2)c1C [Example 399, N-[1-(cyclopropylmethyl)-3-(4-fluorophenyl)-4-methyl-1H-pyrazol-5-yl]-6-[3,5-dimethyl-4-(methylsulfanyl)-1H-pyrazol-1-yl]pyrimidin-4-amine] | 6
13 | Cc1cc(C)n(-c2cc(Nc3nn(C)c(-c4ccc(F)cc4)c3OC(F)F)ncn2)n1 [Example 400, N-[4-(difluoromethoxy)-5-(4-fluorophenyl)-1-methyl-1H-pyrazol-3-yl]-6-(3,5-dimethyl-1H-pyrazol-1-yl)pyrimidin-4-amine] | 6
14 | Cc1nn(-c2cc(Nc3c(C)c(-c4ccc(F)cc4)nn3CC3CC3)ncn2)c(C)c1[S+](C)[O-] (stereo not drawn) [Example 401, N-[1-(cyclopropylmethyl)-3-(4-fluorophenyl)-4-methyl-1H-pyrazol-5-yl]-6-[3,5-dimethyl-4-(methylsulfinyl)-1H-pyrazol-1-yl]pyrimidin-4-amine] | 1400
15 | Cc1nn(-c2cc(Nc3c(C)c(-c4ccc(F)cc4)nn3CC3CC3)ncn2)c(C)c1C(=O)N(C)C [Example 402, 1-(6-{[1-(cyclopropylmethyl)-3-(4-fluorophenyl)-4-methyl-1H-pyrazol-5-yl]amino}pyrimidin-4-yl)-N,N,3,5-tetramethyl-1H-pyrazole-4-carboxamide] | 55
16 | Cc1nn(-c2cc(Nc3c(C)c(-c4ccc(F)cc4)nn3CC3CC3)ncn2)c(C)c1Br [Example 406, 6-(4-bromo-3,5-dimethyl-1H-pyrazol-1-yl)-N-[1-(cyclopropylmethyl)-3-(4-fluorophenyl)-4-methyl-1H-pyrazol-5-yl]pyrimidin-4-amine] | 3
17 | Cc1cc(C)n(-c2cc(Nc3c(C)c(-c4ccc(C(F)F)cc4)nn3C)ncn2)n1 [Example 407, N-{3-[4-(difluoromethyl)phenyl]-1,4-dimethyl-1H-pyrazol-5-yl}-6-(3,5-dimethyl-1H-pyrazol-1-yl)pyrimidin-4-amine] | 29
18 | Cc1cc(C(F)F)n(-c2cc(Nc3c(C)c(-c4ccc(C(F)F)cc4)nn3C)ncn2)n1 [Example 408, 6-[5-(difluoromethyl)-3-methyl-1H-pyrazol-1-yl]-N-{3-[4-(difluoromethyl)phenyl]-1,4-dimethyl-1H-pyrazol-5-yl}pyrimidin-4-amine] | 6
19 | Cc1cc(C)n(-c2cc(Nc3nn(C)c(-c4ccc(C(F)F)cc4)c3C)ncn2)n1 [Example 409, N-{5-[4-(difluoromethyl)phenyl]-1,4-dimethyl-1H-pyrazol-3-yl}-6-(3,5-dimethyl-1H-pyrazol-1-yl)pyrimidin-4-amine] | 140
20 | COc1c(Nc2cc(-n3nc(C)cc3C(F)F)ncn2)nn(C)c1-c1ccc(C#N)cc1 [Example 410, 4-[3-({6-[5-(difluoromethyl)-3-methyl-1H-pyrazol-1-yl]pyrimidin-4-yl}amino)-4-methoxy-1-methyl-1H-pyrazol-5-yl]benzonitrile] | 2
21 | COc1c(-c2ccc(C#N)cc2)nn(C)c1Nc1cc(-n2nc(C)cc2C(F)F)ncn1 [Example 411, 4-[5-({6-[5-(difluoromethyl)-3-methyl-1H-pyrazol-1-yl]pyrimidin-4-yl}amino)-4-methoxy-1-methyl-1H-pyrazol-3-yl]benzonitrile] | 150
22 | Cc1cc(C(F)F)n(-c2cc(Nc3nn(C)c(-c4ccc(F)cc4)c3OC(F)F)ncn2)n1 [Example 412, N-[4-(difluoromethoxy)-5-(4-fluorophenyl)-1-methyl-1H-pyrazol-3-yl]-6-[5-(difluoromethyl)-3-methyl-1H-pyrazol-1-yl]pyrimidin-4-amine] | 12
23 | Cc1nn(-c2cc(Nc3nn(C)c(-c4ccc(F)cc4)c3OC(F)F)ncn2)c(C)c1Cl [Example 413, 6-(4-chloro-3,5-dimethyl-1H-pyrazol-1-yl)-N-[4-(difluoromethoxy)-5-(4-fluorophenyl)-1-methyl-1H-pyrazol-3-yl]pyrimidin-4-amine] | 4
24 | COCCn1nc(-c2ccc(F)cc2)c(C)c1Nc1cc(-n2nc(C)c(Cl)c2C)ncn1 [Example 414, 6-(4-chloro-3,5-dimethyl-1H-pyrazol-1-yl)-N-[3-(4-fluorophenyl)-1-(2-methoxyethyl)-4-methyl-1H-pyrazol-5-yl]pyrimidin-4-amine] | 3
25 | Cc1ccc(-c2nn(CC3CC3)c(Nc3cc(-n4nc(C)cc4C(F)F)ncn3)c2C)cn1 [Example 415, N-[1-(cyclopropylmethyl)-4-methyl-3-(6-methylpyridin-3-yl)-1H-pyrazol-5-yl]-6-[5-(difluoromethyl)-3-methyl-1H-pyrazol-1-yl]pyrimidin-4-amine] | 1150
26 | Cc1c(-c2ccc(F)cc2)nn(CC2CC2)c1Nc1cc(-n2[nH]c3c(c2=O)CCCC3)ncn1 [Example 416, 2-(6-{[1-(cyclopropylmethyl)-3-(4-fluorophenyl)-4-methyl-1H-pyrazol-5-yl]amino}pyrimidin-4-yl)-1,2,4,5,6,7-hexahydro-3H-indazol-3-one] | 1150
27 | CNc1ccc(-c2nn(CC3CC3)c(Nc3cc(-n4nc(C)c(Cl)c4C)ncn3)c2C)cc1 [Example 417, 6-(4-chloro-3,5-dimethyl-1H-pyrazol-1-yl)-N-{1-(cyclopropylmethyl)-4-methyl-3-[4-(methylamino)phenyl]-1H-pyrazol-5-yl}pyrimidin-4-amine] | 27
